Measured values reported in US20250099491A1, “PREVENTION OR TREATMENT OF CARDIOVASCULAR DISEASES WITH HIGH PENETRATION PRODRUGS OF ASPIRIN AND OTHER NSAIDS” (Techfields Inc., priority 2022, published 2025).

Tested on: rats, minipigs, rabbits, guinea pigs, Ames, CHO-WBL Cells
Test: Nonclinical pharmacology and toxicology battery
Type: in vivo
Details: battery of GLP dermal toxicity, genotoxicity, safety pharmacology, irritation and sensitization studies
Protocol: A battery of pharmacology and toxicology studies were conducted to support early clinical trials, including a GLP acute dermal maximum tolerated dose study in rats, a GLP acute dermal maximum tolerated dose study in minipigs, a 28-day GLP repeated dermal dose toxicity and toxicokinetics study in rats with 14-day recovery, a 28-day GLP repeated dermal dose toxicity and toxicokinetics study in minipigs with 14-day recovery, a GLP bacterial reverse mutation assay (Ames), a GLP in vitro chromosome aberration assay in CHO-WBL Cells, a GLP in vivo bone marrow micronucleus assay in rats, a behavioral effects in rats using the functional observational battery, a rat respiratory safety pharmacology study, a cardiovascular telemetry study in the unrestrained conscious minipigs, a skin irritation study in rabbits, and a sensitization test in guinea pigs.

CCN(CC)CCOC(=O)c1ccccc1OC(C)=O.Cl [Compound-1]
nonclinical safety and tolerability: safe and generally well tolerated
